This is an account of results in ChEMBL document CHEMBL4627335, “Lead discovery, chemical optimization, and biological evaluation studies of novel histone methyltransferase SET7 small-molecule inhibitors” (Bioorg Med Chem Lett, 2020).

For series [1], the target named is T1, Histone-lysine N-methyltransferase SETD7 (Homo sapiens, UniProt Q8WTS6).
T1 sequence (Q8WTS6 whole entry): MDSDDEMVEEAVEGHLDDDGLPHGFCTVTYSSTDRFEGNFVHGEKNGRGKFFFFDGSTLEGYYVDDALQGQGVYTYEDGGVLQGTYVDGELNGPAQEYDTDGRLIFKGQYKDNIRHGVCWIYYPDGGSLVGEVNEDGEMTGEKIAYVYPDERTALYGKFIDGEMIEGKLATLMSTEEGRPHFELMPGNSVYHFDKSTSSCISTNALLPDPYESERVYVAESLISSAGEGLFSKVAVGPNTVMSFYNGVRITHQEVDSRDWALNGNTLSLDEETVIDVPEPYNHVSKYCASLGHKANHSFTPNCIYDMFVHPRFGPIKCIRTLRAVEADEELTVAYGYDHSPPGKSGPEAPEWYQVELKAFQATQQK
In words: Inhibition of SET7 (unknown origin) using biotinylated histone polypeptide as substrate in presence of SAM by AlphaLISA assay. A general note: In Alpha technology, singlet oxygen from a donor bead excites a nearby acceptor bead.

Series [2] deals with T2, Histone-lysine N-methyltransferase SETD7 (Homo sapiens) (UniProt Q8WTS6).
T2 sequence (whole entry): T1 sequence (Q8WTS6 whole entry)
In words: Inhibition of SET7 in human MCF7 cells assessed as reduction in ERalpha protein expression by Western blot analysis. In kind it is cell-based. Background: A western blot detects proteins with antibodies after separation by electrophoresis.

In series [3] the target is T2, Histone-lysine N-methyltransferase SETD7 (Homo sapiens). The series can be described thus: Inhibition of SET7 (unknown origin) at 100 uM.
Series [4] has as its target Histone-lysine N-methyltransferase, H3 lysine-36 specific (Homo sapiens) (UniProt Q96L73). The series can be described thus: Inhibition of NSD1 (unknown origin) at 100 uM.
A further series has as its system HUVEC. In words: Cytotoxicity against HUVEC assessed as reduction in cell viability by Cell Titer-Glo based luminescence assay. The conditions noted are these: human. A general note: In ATP-based viability assays light output follows the ATP content of the culture.
Series [5] concerns the target T3, Histone acetyltransferase KAT8 (Homo sapiens) (UniProt Q9H7Z6).
T3 sequence (whole entry): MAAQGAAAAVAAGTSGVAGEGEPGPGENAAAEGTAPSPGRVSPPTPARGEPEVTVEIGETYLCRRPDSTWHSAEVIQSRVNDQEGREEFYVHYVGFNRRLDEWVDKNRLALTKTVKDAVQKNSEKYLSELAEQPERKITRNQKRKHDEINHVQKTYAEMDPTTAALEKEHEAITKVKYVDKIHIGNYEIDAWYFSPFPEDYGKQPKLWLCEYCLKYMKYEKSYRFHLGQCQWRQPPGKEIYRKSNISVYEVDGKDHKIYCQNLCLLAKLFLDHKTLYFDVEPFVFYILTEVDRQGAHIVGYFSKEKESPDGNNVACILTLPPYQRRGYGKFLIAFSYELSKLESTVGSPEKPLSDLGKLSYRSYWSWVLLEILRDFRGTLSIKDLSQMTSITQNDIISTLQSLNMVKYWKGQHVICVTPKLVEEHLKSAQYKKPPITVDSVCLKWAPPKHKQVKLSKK
The series can be described thus: Inhibition of MOF (unknown origin) at 100 uM.

Series [6] deals with T4, Histone-lysine N-methyltransferase SUV39H1 (Homo sapiens) (UniProt O43463).
T4 sequence (whole entry): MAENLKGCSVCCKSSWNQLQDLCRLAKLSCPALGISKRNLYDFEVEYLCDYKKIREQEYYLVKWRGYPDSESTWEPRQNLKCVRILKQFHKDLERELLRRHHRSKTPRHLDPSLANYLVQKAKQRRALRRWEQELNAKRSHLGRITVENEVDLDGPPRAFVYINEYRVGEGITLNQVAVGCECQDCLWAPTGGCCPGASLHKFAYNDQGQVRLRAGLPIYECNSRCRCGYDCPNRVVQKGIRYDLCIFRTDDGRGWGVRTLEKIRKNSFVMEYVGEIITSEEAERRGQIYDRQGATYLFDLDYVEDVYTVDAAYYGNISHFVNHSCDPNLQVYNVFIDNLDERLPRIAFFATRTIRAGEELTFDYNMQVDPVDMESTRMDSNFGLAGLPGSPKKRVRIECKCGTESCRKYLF
The series can be described thus: Inhibition of SUV39H1 (unknown origin) at 100 uM.

The target in series [7] is T1, Histone-lysine N-methyltransferase SETD7. In words: Binding affinity to SET7 (unknown origin) by SPR analysis.
A further series relates to MCF7. In words: Antiproliferative activity against human MCF7 cells expresses endogenous ER by Cell Titer-Glo based luminescence assay.
In series [8] the target is T5, Histone-lysine N-methyltransferase EHMT2 (Homo sapiens) (UniProt Q96KQ7).
T5 sequence (whole entry): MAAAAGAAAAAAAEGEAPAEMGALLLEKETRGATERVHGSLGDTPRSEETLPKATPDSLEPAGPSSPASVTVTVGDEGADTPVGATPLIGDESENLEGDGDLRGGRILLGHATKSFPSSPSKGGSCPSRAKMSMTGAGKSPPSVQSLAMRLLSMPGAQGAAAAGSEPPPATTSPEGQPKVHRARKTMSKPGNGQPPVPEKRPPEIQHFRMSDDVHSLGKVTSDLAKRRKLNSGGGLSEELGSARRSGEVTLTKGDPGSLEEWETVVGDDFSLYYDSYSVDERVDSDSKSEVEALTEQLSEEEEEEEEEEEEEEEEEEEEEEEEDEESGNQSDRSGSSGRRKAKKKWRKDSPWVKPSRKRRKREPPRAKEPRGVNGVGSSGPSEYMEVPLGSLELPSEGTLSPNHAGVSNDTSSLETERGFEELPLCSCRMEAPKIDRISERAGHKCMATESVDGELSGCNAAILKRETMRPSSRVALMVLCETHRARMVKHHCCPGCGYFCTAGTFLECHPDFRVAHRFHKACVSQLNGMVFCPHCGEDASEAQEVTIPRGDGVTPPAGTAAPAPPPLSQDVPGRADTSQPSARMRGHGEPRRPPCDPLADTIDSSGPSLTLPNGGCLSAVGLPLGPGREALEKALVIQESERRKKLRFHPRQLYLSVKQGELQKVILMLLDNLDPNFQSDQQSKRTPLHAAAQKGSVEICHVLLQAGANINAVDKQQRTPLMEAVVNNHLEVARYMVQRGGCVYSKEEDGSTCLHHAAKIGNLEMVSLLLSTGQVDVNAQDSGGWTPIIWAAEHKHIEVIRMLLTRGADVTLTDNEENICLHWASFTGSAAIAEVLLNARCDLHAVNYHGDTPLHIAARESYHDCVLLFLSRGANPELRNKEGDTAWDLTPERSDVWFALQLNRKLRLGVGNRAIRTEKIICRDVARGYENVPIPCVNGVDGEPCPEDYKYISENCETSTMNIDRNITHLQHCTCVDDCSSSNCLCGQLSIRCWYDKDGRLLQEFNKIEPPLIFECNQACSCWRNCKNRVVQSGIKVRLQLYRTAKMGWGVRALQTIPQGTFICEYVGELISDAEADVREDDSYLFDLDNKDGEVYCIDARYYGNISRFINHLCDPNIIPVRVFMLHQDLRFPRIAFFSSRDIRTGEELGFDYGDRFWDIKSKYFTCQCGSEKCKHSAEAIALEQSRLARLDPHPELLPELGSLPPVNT
The series can be described thus: Inhibition of G9a (unknown origin) at 100 uM.

A further series deals with MRC5. The series can be described thus: Cytotoxicity against human MRC5 cells assessed as reduction in cell viability by Cell Titer-Glo based luminescence assay.
Series [9] concerns the target Histone-lysine N-methyltransferase, H3 lysine-79 specific (Homo sapiens) (UniProt Q8TEK3). The series can be described thus: Inhibition of DOT1L (unknown origin) at 100 uM.

Calls of active or inactive are those of the source. The calls are words filed in the database; no cut-off is given here. Where only a bound is given, the exact number is not on record here.

Sequence of Histone-lysine N-methyltransferase, H3 lysine-79 specific (Homo sapiens) (Q8TEK3 whole entry, looked up): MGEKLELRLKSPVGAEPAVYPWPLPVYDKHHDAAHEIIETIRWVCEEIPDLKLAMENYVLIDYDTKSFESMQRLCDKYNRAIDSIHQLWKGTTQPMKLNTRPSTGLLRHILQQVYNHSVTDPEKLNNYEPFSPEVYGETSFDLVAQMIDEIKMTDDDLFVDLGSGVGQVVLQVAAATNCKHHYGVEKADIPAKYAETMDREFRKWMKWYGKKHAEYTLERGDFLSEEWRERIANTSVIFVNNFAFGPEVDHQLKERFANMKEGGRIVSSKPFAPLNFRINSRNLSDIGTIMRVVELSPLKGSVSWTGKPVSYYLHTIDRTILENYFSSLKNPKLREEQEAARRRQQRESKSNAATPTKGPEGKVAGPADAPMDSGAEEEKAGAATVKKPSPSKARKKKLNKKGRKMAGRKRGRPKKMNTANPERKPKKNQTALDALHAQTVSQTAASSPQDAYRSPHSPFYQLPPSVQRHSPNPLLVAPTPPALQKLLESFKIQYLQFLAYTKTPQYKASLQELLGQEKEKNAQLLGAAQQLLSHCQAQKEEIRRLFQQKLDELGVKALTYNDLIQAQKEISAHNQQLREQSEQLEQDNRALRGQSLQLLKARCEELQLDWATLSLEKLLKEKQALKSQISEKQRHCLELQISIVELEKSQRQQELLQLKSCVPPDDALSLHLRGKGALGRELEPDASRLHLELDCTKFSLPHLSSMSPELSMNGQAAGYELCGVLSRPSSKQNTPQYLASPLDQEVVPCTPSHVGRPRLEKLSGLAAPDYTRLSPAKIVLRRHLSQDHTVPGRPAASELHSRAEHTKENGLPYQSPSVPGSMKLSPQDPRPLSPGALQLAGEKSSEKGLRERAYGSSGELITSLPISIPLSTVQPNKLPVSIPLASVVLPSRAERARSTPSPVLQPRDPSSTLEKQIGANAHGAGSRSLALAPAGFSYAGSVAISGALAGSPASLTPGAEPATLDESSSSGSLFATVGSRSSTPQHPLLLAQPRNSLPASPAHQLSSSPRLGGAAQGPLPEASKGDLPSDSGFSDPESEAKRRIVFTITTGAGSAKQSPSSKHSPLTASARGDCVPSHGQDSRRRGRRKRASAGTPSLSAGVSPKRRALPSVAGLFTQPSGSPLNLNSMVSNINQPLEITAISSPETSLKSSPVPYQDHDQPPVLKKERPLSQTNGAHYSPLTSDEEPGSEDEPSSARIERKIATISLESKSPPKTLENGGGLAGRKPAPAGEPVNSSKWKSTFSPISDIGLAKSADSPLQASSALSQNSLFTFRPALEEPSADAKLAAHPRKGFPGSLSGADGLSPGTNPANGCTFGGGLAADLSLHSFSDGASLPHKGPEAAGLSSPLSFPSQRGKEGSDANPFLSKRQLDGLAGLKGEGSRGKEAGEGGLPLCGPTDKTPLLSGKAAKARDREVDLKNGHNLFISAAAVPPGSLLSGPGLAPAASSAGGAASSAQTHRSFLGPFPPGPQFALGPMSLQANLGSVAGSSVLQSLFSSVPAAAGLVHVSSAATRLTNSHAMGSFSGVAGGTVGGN
Sequence of Histone-lysine N-methyltransferase, H3 lysine-36 specific (Homo sapiens) (Q96L73 whole entry): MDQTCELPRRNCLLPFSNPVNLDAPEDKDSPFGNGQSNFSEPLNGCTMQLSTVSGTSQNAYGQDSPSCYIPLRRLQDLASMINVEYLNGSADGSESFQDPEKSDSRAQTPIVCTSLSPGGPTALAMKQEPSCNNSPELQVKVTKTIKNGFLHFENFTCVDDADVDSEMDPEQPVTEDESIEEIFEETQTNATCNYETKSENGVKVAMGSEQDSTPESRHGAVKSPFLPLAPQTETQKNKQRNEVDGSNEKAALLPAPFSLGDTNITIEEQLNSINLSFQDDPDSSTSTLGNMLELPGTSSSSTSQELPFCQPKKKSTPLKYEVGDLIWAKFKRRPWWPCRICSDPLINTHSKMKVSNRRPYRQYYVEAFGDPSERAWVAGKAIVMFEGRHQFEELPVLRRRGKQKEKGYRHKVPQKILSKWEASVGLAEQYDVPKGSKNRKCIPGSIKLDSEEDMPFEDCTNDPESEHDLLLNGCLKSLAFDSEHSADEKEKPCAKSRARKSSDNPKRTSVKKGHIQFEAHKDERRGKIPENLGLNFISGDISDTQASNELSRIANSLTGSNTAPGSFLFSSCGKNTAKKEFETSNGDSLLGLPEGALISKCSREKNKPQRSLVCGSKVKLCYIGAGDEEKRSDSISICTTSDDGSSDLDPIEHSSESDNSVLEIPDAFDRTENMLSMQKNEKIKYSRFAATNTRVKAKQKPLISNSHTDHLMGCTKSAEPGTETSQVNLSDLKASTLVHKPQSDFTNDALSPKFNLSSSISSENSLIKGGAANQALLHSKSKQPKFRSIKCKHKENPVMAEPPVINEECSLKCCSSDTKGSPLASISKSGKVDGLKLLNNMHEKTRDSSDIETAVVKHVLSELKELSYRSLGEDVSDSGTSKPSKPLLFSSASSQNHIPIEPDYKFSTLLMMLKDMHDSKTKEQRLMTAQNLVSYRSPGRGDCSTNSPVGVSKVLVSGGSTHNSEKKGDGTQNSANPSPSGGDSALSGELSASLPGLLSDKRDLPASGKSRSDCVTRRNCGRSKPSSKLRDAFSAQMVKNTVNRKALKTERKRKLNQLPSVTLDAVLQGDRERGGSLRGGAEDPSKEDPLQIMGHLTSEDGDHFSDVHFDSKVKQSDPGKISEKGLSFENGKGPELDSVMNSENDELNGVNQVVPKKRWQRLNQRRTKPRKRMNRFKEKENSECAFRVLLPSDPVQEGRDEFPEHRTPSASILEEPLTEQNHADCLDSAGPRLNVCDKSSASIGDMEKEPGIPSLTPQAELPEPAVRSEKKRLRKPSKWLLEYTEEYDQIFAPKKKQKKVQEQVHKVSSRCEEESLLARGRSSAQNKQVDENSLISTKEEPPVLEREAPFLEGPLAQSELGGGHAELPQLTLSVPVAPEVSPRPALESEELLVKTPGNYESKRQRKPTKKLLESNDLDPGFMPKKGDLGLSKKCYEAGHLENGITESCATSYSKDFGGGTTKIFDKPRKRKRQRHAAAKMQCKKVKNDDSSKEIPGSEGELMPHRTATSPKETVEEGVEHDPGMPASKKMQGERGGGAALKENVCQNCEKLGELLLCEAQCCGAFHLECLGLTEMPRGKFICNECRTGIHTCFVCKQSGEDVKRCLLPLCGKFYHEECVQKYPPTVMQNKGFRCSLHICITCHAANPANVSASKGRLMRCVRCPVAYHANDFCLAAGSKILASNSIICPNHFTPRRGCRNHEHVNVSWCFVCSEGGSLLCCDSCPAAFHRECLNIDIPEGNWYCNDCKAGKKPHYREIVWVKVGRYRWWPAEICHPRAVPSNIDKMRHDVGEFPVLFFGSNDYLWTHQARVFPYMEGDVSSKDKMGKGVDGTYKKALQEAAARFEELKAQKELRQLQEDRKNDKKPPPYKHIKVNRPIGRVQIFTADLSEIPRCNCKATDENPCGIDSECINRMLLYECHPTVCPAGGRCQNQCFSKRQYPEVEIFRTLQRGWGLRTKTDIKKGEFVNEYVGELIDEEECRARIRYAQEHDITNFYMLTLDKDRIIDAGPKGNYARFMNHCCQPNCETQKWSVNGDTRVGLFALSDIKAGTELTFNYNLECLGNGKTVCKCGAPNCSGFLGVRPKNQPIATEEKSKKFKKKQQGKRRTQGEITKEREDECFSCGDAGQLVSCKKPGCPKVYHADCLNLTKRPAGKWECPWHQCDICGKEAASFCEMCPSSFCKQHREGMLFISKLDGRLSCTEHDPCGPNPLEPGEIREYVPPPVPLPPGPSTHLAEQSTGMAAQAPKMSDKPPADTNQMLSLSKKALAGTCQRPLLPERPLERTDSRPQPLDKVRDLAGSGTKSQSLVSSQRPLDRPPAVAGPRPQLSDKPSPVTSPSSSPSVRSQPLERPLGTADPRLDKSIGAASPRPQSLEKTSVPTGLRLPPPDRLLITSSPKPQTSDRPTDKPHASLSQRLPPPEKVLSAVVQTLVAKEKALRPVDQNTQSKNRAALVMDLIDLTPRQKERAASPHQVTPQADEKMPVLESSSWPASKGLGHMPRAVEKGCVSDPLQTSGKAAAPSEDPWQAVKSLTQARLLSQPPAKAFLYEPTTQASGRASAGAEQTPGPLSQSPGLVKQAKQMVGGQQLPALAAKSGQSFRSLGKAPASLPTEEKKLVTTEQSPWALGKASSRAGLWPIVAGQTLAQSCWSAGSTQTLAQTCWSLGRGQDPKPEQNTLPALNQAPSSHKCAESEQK

Broadly, the IC50 is the midpoint of a concentration-inhibition curve. For `O=C1C=CC(=O)C(c2ccc(CN3CCOCC3)c(NS(=O)(=O)c3ccc(C(F)(F)F)cc3)c2)=C1`, in [1], the IC50 was greater than 200 µM.
Turning to `O=C1C=C(O)C(=O)c2ccccc21` [LAWSONE], the IC50 in [1] was greater than 200 µM.
On the same count and under the same terms, next, `CCCCc1ccc(C2=CC(=O)C=CC2=O)cc1`: greater than 200 µM; `COc1ccc(OC)c(-c2ccc(CN3CCN(C(=O)OC(C)(C)C)CC3)cc2)c1`: greater than 200 µM.
For the molecule `COC1=CC(=O)c2ccccc2C1=O` [2-Methoxy-1,4-naphthoquinone], the IC50 in series [1] was greater than 200 µM.
For the molecule `Cc1ccc(C2=CC(=O)C=CC2=O)cc1C`, the IC50 in series [1] is greater than 200 µM.
Still for that read-out and setting: the same measure for `Cc1ccc(C2=CC(=O)C=CC2=O)cc1`: greater than 200 µM.
For the molecule `COc1ccc(OC)c(-c2ccc(CN3CCCC3)c(N)c2)c1`, in series [1], the IC50 is greater than 200 µM.
Consider `CC(C)c1ccc(C2=CC(=O)C=CC2=O)cc1`, for which the IC50 in series [1] was greater than 200 µM.
Still for that read-out and setting: next, `CC(C)(C)OC(=O)N1CCN(C(=O)c2ccc(-c3cccc(C#N)c3)cc2)CC1`: greater than 200 µM.
On to `COc1ccc(OC)c(-c2ccc(CN3CCCC3)c(NS(=O)(=O)c3ccccc3)c2)c1`, for which, in [1], the IC50 was greater than 200 µM.
The same measure, in the same setting: next, `COc1ccc(OC)c(-c2ccc(CN3CCCC3)c([N+](=O)[O-])c2)c1`: greater than 200 µM; `O=C1C=CC(=O)C(c2ccc(CN3CCOCC3)c(NS(=O)(=O)c3ccc([N+](=O)[O-])cc3)c2)=C1`: greater than 200 µM.
For `CN(C)CCNC(=O)c1ccc(-c2cccc(C#N)c2)cc1`, the IC50 in series [1] is greater than 200 µM.
The term Kd denotes the constant that tells how readily two partners part at equilibrium. With `COC(=O)c1ccc(C2=CC(=O)C=CC2=O)o1`, the inhibition result in series [2] is “Dose-dependent effect”. The inhibition entry in series [3] is “Active”. Besides, the inhibition entry in series [4], in [5], in series [6], in series [8] and in [9] was “inactive” throughout. Further, the Activity result in the series with HUVEC and in the series with MRC5 was “Toxic” throughout. The molecule also showed a dissociation constant (Kd) in series [7] of 18 µM. For the same molecule, the IC50 in the series with MCF7 was determined as 25.8 µM; in [1], 15.9 µM.
For `O=C1C=CC(=O)C(c2ccc(CN3CCCC3)c(NS(=O)(=O)c3ccc(C(F)(F)F)cc3)c2)=C1`, the IC50 in series [1] is greater than 200 µM.
As for `COc1ccc(OC)c(-c2ccc(CN3CCOCC3)c(NS(=O)(=O)c3ccccc3)c2)c1`, the IC50 in series [1] was greater than 200 µM.
On the same count and under the same terms, the same measure for `N#Cc1ccc(-c2ccc(C(=O)O)cc2)cc1`: greater than 200 µM; for `N#Cc1cccc(-c2ccc(C(=O)N3CCNCC3)cc2)c1`: greater than 200 µM; for `CC(C)(C)OC(=O)N1CCN(C(=O)c2ccc(-c3ccc(C#N)cc3)cc2)CC1`: greater than 200 µM.
For `O=C1C=CC(=O)C(c2cccc(C(F)(F)F)c2)=C1`, the half-maximal inhibitory concentration (IC50) in series [1] was greater than 200 µM.
Regarding `O=C1C=CC(=O)C(c2ccc(CN3CCOCC3)c(NS(=O)(=O)c3ccc(Cl)cc3)c2)=C1`, the IC50 in series [1] was greater than 200 µM.
Still for that read-out and setting: the same measure for `N#Cc1cccc(-c2ccc(C(=O)O)cc2)c1`: greater than 200 µM.
Consider `CN(C)CCNC(=O)c1ccc(-c2ccc(C#N)cc2)cc1`, for which the IC50 in [1] was greater than 200 µM.
Still for that read-out and setting: next, `COc1ccc(OC)c(-c2ccc(CN3CCN(C(=O)OC(C)(C)C)CC3)c(N)c2)c1`: greater than 200 µM; `O=C1C=CC(=O)C(c2ccc(Br)cc2)=C1`: greater than 200 µM.
